Measurements taken from patent US8962621B2 (Shanghai Institute of Pharmaceutical Industry, priority 2010, dated 2015).

How the values were obtained:
5-HT reuptake = experiment: 5-Hydroxytryptophan (DL-5-HTP) potentiation in mice (head twitches); type: in vivo; conditions: for Frequency of head twitches 0 (number of mice) / Frequency of head twitches I (number of mice) / Frequency of head twitches II (number of mice) / Frequency of head twitches III (number of mice): Pargyline 75 mg/kg s.c., DL-5-HTP i.v.
Source text: Tests of the 5-hydroxytryptophan (DL-5-HTP) potentiation in mice, Yohimbine toxicity enhancement in mice and oxidation tremors can verify a compound's inhibition effect on 5-HT, NA and DA reuptake. Compound VI-2 is selected for the tests.
a) Principles • Taking DL-5-HTP as the precursor of 5-HT, the MAOs inhibitor Pargyline can inhibit the enzymatic degradation […]. While in mice, characteristic symptoms—head twitches can be observed.
b) Test Method • Three different dosages of VI-2 are used: 30, 15 and 7.5 mg/kg. The mouse is treated as follows: first, intraperitoneal injection of the compound, 0.2 mL/10 g; 30 min later, subcutaneous injection of Pargyline, 75 mg/kg; and 90 min later, intraveneous injection of DL-5-HTP. The induced head twitches of the mouse are observed 15 min later.

rats = experiment: Learned helplessness experiment (conditioned avoidance test); type: in vivo; conditions: for Incubation period of escape / Number of times of successful avoidance: one week, test 24 h after last administration, n = 10
Source text: (1) Principles • This is an animal model of depression. In this experiment, an animal is placed under conditions with aversive stimulus which it can't escape. […] This is a well recognized depression state, in which the level of catecholamine in the animal's brain is reduced. An antidepressant can act against this state. The learned helplessness model is sensitive to a variety of antidepressants used in a sub-long period (3-7 d), including tricyclic antidepressants, monoamine oxidase inhibitors, monoamine reuptake inhibitors and atypical antidepressants.
(2) Test Method • The animals are grouped. The pre-shock animals are generated the first day by performing inescapable electric shock. The pre-shock animals are given foot electric shock (0.8 mA, 15 s) for 60 times (1 min interval). Rats in the control group are only put into the cage for a same period of time but without any electric shock. • The administration of drugs starts the next day and lasts for one week. […] The conditioned avoidance test is conducted 24 h after the last administration to determine the number of times of successful avoidance and the incubation period of escape.

[1] = Acute toxicity experiment (single oral gavage); conditions: mouse, in vivo, po
[2] = Venlafaxine 30 mg/kg, VI-2 at 3 doses (20, 10, 5 mg/kg)

SMILES: CN(C)CCC(c1ccc(Cl)c(Cl)c1)N1CCCC1 (stereo not shown) [VI-2, N,N-dimethyl-3-(3,4-dichlorophenyl)-3-(pyrrolidin-1-yl)-propylamine]
- Frequency of head twitches 0 (number of mice) (5-HT reuptake; 7.5 mg/kg intraperitoneal): 1
- Frequency of head twitches I (number of mice) (5-HT reuptake; 7.5 mg/kg intraperitoneal): 3
- Frequency of head twitches II (number of mice) (5-HT reuptake; 7.5 mg/kg intraperitoneal): 6
- Frequency of head twitches III (number of mice) (5-HT reuptake; 7.5 mg/kg intraperitoneal): 0
- Frequency of head twitches 0 (number of mice) (5-HT reuptake; 15 mg/kg intraperitoneal): 0
- Frequency of head twitches I (number of mice) (5-HT reuptake; 15 mg/kg intraperitoneal): 0
- Frequency of head twitches II (number of mice) (5-HT reuptake; 15 mg/kg intraperitoneal): 4
- Frequency of head twitches III (number of mice) (5-HT reuptake; 15 mg/kg intraperitoneal): 6
- Frequency of head twitches 0 (number of mice) (5-HT reuptake; 30 mg/kg intraperitoneal): 0
- Frequency of head twitches I (number of mice) (5-HT reuptake; 30 mg/kg intraperitoneal): 0
- Frequency of head twitches II (number of mice) (5-HT reuptake; 30 mg/kg intraperitoneal): 0
- Frequency of head twitches III (number of mice) (5-HT reuptake; 30 mg/kg intraperitoneal): 10
- enhancement of the effect of 5-HTP (in words) (5-HT reuptake; 30, 15 and 7.5 mg/kg, significant dose-effect relationship): significantly enhance the effect of 5-HTP
- Incubation period of escape (rats; 5 mg/kg): 140.3 ± 195.44 s
- Number of times of successful avoidance (rats; 5 mg/kg): 21.2 ± 6.73
- Incubation period of escape (rats; 10 mg/kg): 188.3 ± 178.38 s
- Number of times of successful avoidance (rats; 10 mg/kg): 19.5 ± 8.83
- Incubation period of escape (rats; 20 mg/kg): 171.1 ± 159.69 s
- Number of times of successful avoidance (rats; 20 mg/kg): 18.9 ± 9.35
- incubation period of escape (in words) (rats; [2]): significantly shortened incubation period of escape
- times of successful avoidance (in words) (rats; [2]): relatively more times of successful avoidance
- LD50 [1]: 950 mg/kg
